Reference: patent publication US20220339178A1, “COMPOSITIONS AND METHODS FOR COGNITIVE PROTECTION OF POLLINATORS AGAINST PESTICIDES” (priority 2019, published 2022)

Tests used:
[1] = tested on: AChE; details: literature report; cited from earlier work
[2] = tested on: butyrylcholinesterase (BChE); details: literature report; cited from earlier work
[3] = tested on: Honeybees (Apis mellifera scutellata); assay: Classical conditioning of the proboscis extension response (PER): learning, 24 h memory retention, latency; flavonoids vs imidacloprid; type: in vivo
Protocol: Honeybees (Apis mellifera scutellata) were captured from established hives at the Apiary of the Pontificia Universidad Javeriana (Bogota, Colombia). Foragers were collected while leaving to forage between 8:00 am and 10:00 am (Matsumoto et al., J Neurosci Methods. 211(1):159-67. 2012). Bees were maintained in individual plastic chambers under laboratory conditions (photoperiod followed seasonal pattern; relative humidity: 63%; temperature: 18° C.). Food was provided once a day in a volume of 20 μL and varied in composition according to experimental treatments.
Control (2M sugar water): fed once a day (20 μL) for three consecutive days;
Quercetin (6.6 mM quercetin (Sigma-Aldrich: Q4951)-sucrose-water with DMSO 1% (Sigma-Aldrich: D8418): fed once a day for three days;
Rutin (1 mM rutin (Sigma-Aldrich R5143)-sucrose-water with DMSO 1%: fed once a day for three days;
Imidacloprid (1.16 nM Imidacloprid (Bayer)-sucrose-water: fed as a single dose (20 μL) 1.5 h before training;
Quercetin-Imidacloprid: bees received the quercetin treatment (see above) and were fed Imidacloprid 1.5 h before training; and
Rutin-Imidacloprid: bees received the rutin treatment (see above) and were fed Imidacloprid 1.5 h before training.
Bees were trained using classical conditioning of the proboscis extension response (PER), a broadly used method to study learning and memory in bees. Briefly, bees received a soft current of clean air for 15 seconds to allow bees to accommodate. Then a soft current of 1-hexanol (Sigma-Aldrich: 471402) was injected for 10 seconds. Six seconds after injection of 1-hexanol, one of the antennae was stimulated with sucrose water (50% w/w), which leads to the reflexive extension of the proboscis, and the bee was allowed to drink for 4 seconds. Thus, the reward and the stimulus overlapped for four seconds. This sequence, recognized as a training trial, was repeated eight times. Time was determined using a metronome (2 Hz). Memory retention was tested 24 hours after the eight training trials. […] 12 bees were trained each session. Training was conducted by an experimenter blind to treatment.
Learning was assessed from the total number of conditioned responses across the eight trials. Thus, each bee received a learning score between 0-7 (by definition, bees cannot show a learned response at the first trial). After 24 h, memory retention was assessed as the response to the presentation of 1-hexanol without a sucrose reward. Latency of response was quantified as the time between the onset of 1-hexanol stimulation and the onset of a response that led to a full extension of proboscis. Only bees being responsive to sucrose water across all training trials and the memory retention test were considered for analyses. Learning scores were compared across treatments using a Mann-Whitney test as data were not normally distributed (Shapiro-Wilk W test for the hypothesis that the data is from a Normal distribution: P<0.05 for all treatments). Comparisons of the learning score of bees across all treatments relative to Control bees were conducted using the Steel method adjusted as one or two-tailed tests. Additional post hoc comparisons were performed between Imid and Quer+Imid bees and between Imid and Rut+Imid bees. Memory retention was compared across groups using an overall Chi-Square test and independent tests for planned comparisons were performed using adjusted Wald tests for proportions. In all cases error due to multiple comparisons was controlled using the False Discovery Rate one stage method and adjusted p-values (q-values) are presented (Benjamini & Hochberg, Journal of the Royal Statistical Society. Series B (Methodological), 57(1):289-300. 1995; Pike, N., Methods in Ecology and Evolution, 2(3):278-282. 2011). All analyses were conducted using JMP v.14.0 (SAS Institute Inc). […]

O=c1c(O)c(-c2ccc(O)c(O)c2)oc2cc(O)cc(O)c12 [Quercetin]
inhibition of AChE [1]: concentration-dependent inhibition ability | inhibition of butyrylcholinesterase (BChE) [2]: concentration-dependent inhibition ability | memory retention, proportion difference relative to Control bees (Adjusted Wald test) ([3]; conditioned PER after 24 h): −0.13 | latency of response during learning acquisition relative to Control bees ([3]; honey bees): not significantly different from Control | learning scores relative to bees in the Imid group ([3]; honey bees prophylactically fed flavonoid for three days, then imidacloprid 1.5 h before training): significantly higher learning scores | learning scores relative to Control bees ([3]; honey bees, 8 trials, score 0-7, quercetin 6.6 mM or rutin 1 mM once a day for three days, imidacloprid 1.16 nM 20 μL 1.5 h before training): significantly higher learning scores
